Values quoted from earlier work as cited in patent US20120058205A1, “COMPOSITIONS AND TREATMENT REGIMES FOR REDUCING INFLAMMATION, END-ORGAN INJURY, AND/OR SYSTEMIC ENDOTOXEMIA” (priority 2009, published 2012).
Values belong to the compound of their own block, whether it stands above or below them.

What was measured:
aldosterone = conditions: administration to diabetic patients
[1] = consistently above; also printed as 500 nmol/L; possible hypercalcemia and hyperphosphatemia
[2] = animal model; also printed as ≦1,000 nmol/L

Structure (SMILES): CC(=O)S[C@@H]1CC2=CC(=O)CC[C@]2(C)[C@H]2CC[C@@]3(C)[C@@H](CC[C@@]34CCC(=O)O4)[C@H]12 [spironolactone]
increase of aldosterone levels (aldosterone): ≥ 400%

circulating half-life (in vivo): 360 h
Structure (SMILES): C=C1CC[C@H](O)C/C1=C/C=C1\CCC[C@]2(C)[C@@H]([C@H](C)CCCC(C)(C)O)CC[C@@H]12 [25(OH)D, 25-hydroxyvitamin D]
serum concentration considered potentially toxic [1]: above 200 ng/mL
concentrations that demonstrated no toxicity [2]: ≤ 400 ng/mL

Structure (SMILES): C=C1/C(=C\C=C2/CCC[C@]3(C)[C@@H]([C@H](C)CCCC(C)(C)O)CC[C@@H]23)C[C@@H](O)C[C@@H]1O [1,25(OH)2D, 1,25-dihydroxyvitamin D]
half-life (circulating): 15 h
